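Protocol summary: plate cells (96-well), add compound at 5 concentrations, incubate 48 h, interpolate endpoints linearly. At the GI50, growth is halved.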 Calls of active or inactive are those of the source. Rule as the data show it: active = GI50 up to about 1.1 µM and inactive = higher.
Experiments:
Experiment in all cases: NCI-60 cell line screen, 48 h
RXF 393 = system: RXF 393
OVCAR-8 = system: OVCAR-8
UACC-257 = system: UACC-257
SNB-19 = system: SNB-19
LOX IMVI = system: LOX IMVI
SK-MEL-28 = system: SK-MEL-28
DLD-1 = system: DLD-1
SNB-75 = system: SNB-75
DMS-273 = system: DMS-273
UACC-62 = system: UACC-62
SF-539 = system: SF-539
IGROV-1 = system: IGROV-1
SF-268 = system: SF-268
OVCAR-5 = system: OVCAR-5
786-0 = system: 786-0
OVCAR-4 = system: OVCAR-4
HOP-62 = system: HOP-62
SNB-78 = system: SNB-78
LXFL 529 = system: LXFL 529
RPMI-8226 = system: RPMI-8226
SF-295 = system: SF-295
HCT-15 = system: HCT-15
SK-MEL-5 = system: SK-MEL-5
U-251 = system: U-251
Malme-3M = system: Malme-3M
UO-31 = system: UO-31
M19-MEL = system: M19-MEL
RXF 631 = system: RXF 631
HT-29 = system: HT-29
NCI-H23 = system: NCI-H23
DMS-114 = system: DMS-114
NCI-H226 = system: NCI-H226
KM-20L2 = system: KM-20L2
CCRF-CEM = system: CCRF-CEM
XF498 = system: XF498
HOP-92 = system: HOP-92
ACHN = system: ACHN
SK-MEL-2 = system: SK-MEL-2
TK-10 = system: TK-10
NCI-H522 = system: NCI-H522
OVCAR-3 = system: OVCAR-3
SN12C = system: SN12C
M14 = system: M14
EKVX = system: EKVX
CAKI-1 = system: CAKI-1
HCC 2998 = system: HCC 2998
K562 = system: K562
NCI-H460 = system: NCI-H460
A498 = system: A498
KM12 = system: KM12
MOLT-4 = system: MOLT-4
HCT-116 = system: HCT-116
SK-OV-3 = system: SK-OV-3
SW-620 = system: SW-620
COLO 205 = system: COLO 205
A549 = system: A549
SR = system: SR
HL-60 = system: HL-60

O=c1[nH]nc2c3n[nH]c(=O)n3c3ccccc3n12
GI50 (RXF 393): > 100 µM (inactive) | GI50 (OVCAR-8): > 100 µM (inactive) | GI50 (UACC-257): > 100 µM (inactive) | GI50 (SNB-19): > 100 µM (inactive) | GI50 (LOX IMVI): > 100 µM (inactive) | GI50 (SK-MEL-28): > 100 µM (inactive) | GI50 (DLD-1): > 100 µM (inactive) | GI50 (SNB-75): 57.5 µM (inactive) | GI50 (DMS-273): > 100 µM (inactive) | GI50 (UACC-62): > 100 µM (inactive) | GI50 (SF-539): 69.8 µM (inactive) | GI50 (IGROV-1): > 100 µM (inactive) | GI50 (SF-268): > 100 µM (inactive) | GI50 (OVCAR-5): > 100 µM (inactive) | GI50 (786-0): > 100 µM (inactive) | GI50 (OVCAR-4): > 100 µM (inactive) | GI50 (HOP-62): > 100 µM (inactive) | GI50 (SNB-78): > 100 µM (inactive) | GI50 (LXFL 529): > 100 µM (inactive) | GI50 (RPMI-8226): > 100 µM (inactive) | GI50 (SF-295): > 100 µM (inactive) | GI50 (HCT-15): > 100 µM | GI50 (SK-MEL-5): > 100 µM (inactive) | GI50 (U-251): > 100 µM (inactive) | GI50 (Malme-3M): > 100 µM (inactive) | GI50 (UO-31): 49.3 µM (inactive) | GI50 (M19-MEL): > 100 µM (inactive) | GI50 (RXF 631): > 100 µM (inactive) | GI50 (HT-29): > 100 µM (inactive) | GI50 (NCI-H23): > 100 µM (inactive) | GI50 (DMS-114): > 100 µM (inactive) | GI50 (NCI-H226): 50.1 µM (inactive) | GI50 (KM-20L2): > 100 µM (inactive) | GI50 (CCRF-CEM): > 100 µM (inactive) | GI50 (XF498): > 100 µM (inactive) | GI50 (HOP-92): 63.7 µM (inactive) | GI50 (ACHN): > 100 µM (inactive) | GI50 (SK-MEL-2): > 100 µM (inactive) | GI50 (TK-10): > 100 µM (inactive) | GI50 (NCI-H522): 66.1 µM (inactive) | GI50 (OVCAR-3): > 100 µM (inactive) | GI50 (SN12C): > 100 µM (inactive) | GI50 (M14): > 100 µM (inactive) | GI50 (EKVX): 93.8 µM (inactive) | GI50 (CAKI-1): > 100 µM (inactive) | GI50 (HCC 2998): > 100 µM (inactive) | GI50 (K562): > 100 µM (inactive) | GI50 (NCI-H460): > 100 µM (inactive) | GI50 (A498): 47.1 µM (inactive) | GI50 (KM12): > 100 µM (inactive) | GI50 (MOLT-4): > 100 µM (inactive) | GI50 (HCT-116): > 100 µM (inactive) | GI50 (SK-OV-3): > 100 µM (inactive) | GI50 (SW-620): > 100 µM (inactive) | GI50 (COLO 205): > 100 µM (inactive) | GI50 (A549): > 100 µM (inactive)

CC1CC(c2ccc([N+](=O)[O-])cc2)=Nc2ccccc2[S+]1[O-] (stereo not given)
GI50 (RXF 393): 11.1 µM (inactive) | GI50 (OVCAR-8): 15.5 µM (inactive) | GI50 (UACC-257): 20.2 µM (inactive) | GI50 (SNB-19): 18.2 µM (inactive) | GI50 (LOX IMVI): 12.1 µM (inactive) | GI50 (SK-MEL-28): 20 µM (inactive) | GI50 (DLD-1): 14.3 µM (inactive) | GI50 (SNB-75): 21.4 µM (inactive) | GI50 (DMS-273): 19 µM (inactive) | GI50 (UACC-62): 17.7 µM (inactive) | GI50 (SF-539): 21.8 µM (inactive) | GI50 (IGROV-1): 15.6 µM (inactive) | GI50 (SF-268): 20.1 µM (inactive) | GI50 (OVCAR-5): 26.5 µM (inactive) | GI50 (OVCAR-4): 21.6 µM (inactive) | GI50 (HOP-62): 26.1 µM (inactive) | GI50 (SR): 22.5 µM (inactive) | GI50 (SNB-78): 43.6 µM (inactive) | GI50 (RPMI-8226): 4.58 µM (inactive) | GI50 (SF-295): 21.4 µM (inactive) | GI50 (HCT-15): 14.6 µM | GI50 (SK-MEL-5): 15.5 µM (inactive) | GI50 (U-251): 13.6 µM (inactive) | GI50 (UO-31): 13 µM (inactive) | GI50 (M19-MEL): 15.9 µM (inactive) | GI50 (RXF 631): 20.8 µM (inactive) | GI50 (HT-29): 12.9 µM (inactive) | GI50 (NCI-H23): 17.6 µM (inactive) | GI50 (DMS-114): 18.4 µM (inactive) | GI50 (NCI-H226): 29.2 µM (inactive) | GI50 (KM-20L2): 16.1 µM (inactive) | GI50 (CCRF-CEM): 11 µM (inactive) | GI50 (XF498): 28.7 µM (inactive) | GI50 (HOP-92): 33.1 µM (inactive) | GI50 (HL-60): 15.1 µM (inactive) | GI50 (ACHN): 21.3 µM (inactive) | GI50 (SK-MEL-2): 44.5 µM (inactive) | GI50 (TK-10): 27 µM (inactive) | GI50 (NCI-H522): 12.2 µM (inactive) | GI50 (SN12C): 37.6 µM (inactive) | GI50 (M14): 18.1 µM (inactive) | GI50 (EKVX): 23.4 µM (inactive) | GI50 (CAKI-1): 20.9 µM (inactive) | GI50 (HCC 2998): 21.8 µM (inactive) | GI50 (K562): 17.5 µM (inactive) | GI50 (NCI-H460): 17.1 µM (inactive) | GI50 (A498): 18.2 µM (inactive) | GI50 (KM12): 13 µM (inactive) | GI50 (MOLT-4): 24.8 µM (inactive) | GI50 (HCT-116): 2.11 µM (inactive) | GI50 (SK-OV-3): 23 µM (inactive) | GI50 (SW-620): 15.3 µM (inactive) | GI50 (COLO 205): 18 µM (inactive) | GI50 (A549): 20 µM (inactive)

— ChEMBL document CHEMBL1201862, “PubChem BioAssay data set” (2004)
